Assay results taken from article PMC8590286, “A novel CD123-targeted therapeutic peptide loaded by micellar delivery system combats refractory acute myeloid leukemia” (Journal of Hematology & Oncology, 2021).
Structures can show the parent of a compound that is named as a salt.

Legend:
AE & CKIT^D816V mice = assay: Survival experiments of Ara-C or HHT in AE & CKIT^D816V AML mice; type: in vivo, mouse; conditions: for median survival of AML mice treated with Ara-C: 25, 50 and 100 mg/kg i.p. daily for 4 days from day 9, versus Con, n=9; for median survival of AML mice treated with HHT: 250 μg/kg i.p. every 2 days from day 9, n=8
Method: The regimen of cytarabine hydrochloride (Ara-C): On day 9 after AE & CKIT^D816V cells implantation, the mice were randomly divided into 4 groups (n=9) including Con (5% glucose), 25, 50 and 100 mg/kg Ara-C. All mice were treated with daily intraperitoneal (i.p.) injections for 4 days and stopped. The survival of the mice was recorded every day.
The regimen of homoharringtonine (HHT): On day 9 after AE & CKIT^D816V cells implantation, the mice were randomly divided into 2 groups (n=8) and i.p. injected with 5% glucose and 250 μg/kg HHT. The administration was given every 2 days. The survival of the mice was recorded every day.
Fig. S7. Therapeutic efficacy of Ara-C or HHT in AE & CKIT^D816V mice. (A) The median survival of AML mice treated with Ara-C was not prolonged compared with the Con group (n=9). […] On day 9 after AE & CKIT^D816V cells implantation, AML mice were treated with i.p. injection of 5% glucose, Ara-C (25, 50 and 100 mg/kg) or HHT (250 μg/kg) as the regimens described.

[1] = tested on: CD123^− AML cell line HL-60; assay: Flow cytometry binding of FITC-labeled peptide to HL-60 cells; type: cell-based, human; conditions: 0.1 and 0.5 μM, 0.5 h
Method: (§1) Fig. S1. Affinity of PO-6 and ^mPO-6 to different leukemia cells. The MOLM-13, K562 or HL-60 cells was incubated with PO-6 or ^mPO-6 at 0.1 and 0.5 μM for 0.5 h. Resulting cells were collected and subjected to C6 Accuri® flow cytometer.
(§2) MOLM-13, HL-60 and K562 cells of 4×10^5/mL were incubated with FITC-labeled PO-6 or ^mPO-6 at 0.1 μM and 0.5 μM for 0.5 h. After twice washed with PBS, subjected to C6 Accuri® flow cytometer (Accuri Cytometers, Ann Arbor, MI) and 1×10^4 cells were collected. Acquired data were analyzed by CFlow Plus software.

[2] = tested on: chronic myeloid leukemia cell line K562 cells; assay: Flow cytometry binding of FITC-labeled peptide to K562 cells; type: cell-based, human; conditions: 0.1 and 0.5 μM, 0.5 h
Method: as §1, §2

[3] = tested on: CD123^+ AML cell line MOLM-13 cells; assay: Flow cytometry binding of FITC-labeled peptide/micelles to MOLM-13 cells; type: cell-based, human; conditions: 0.1 and 0.5 μM, 0.5 h
Method: Fig. 1 A Affinity of ^mPO-6 to MOLM-13 cells incubated at 0.1 and 0.5 μM for 0.5 h. B Images of ^mPO-6 bound with MOLM-13 cells at 0.1 μM for 0.5 h obtained from the laser confocal microscopy. C Effects of ^mPO-6 on the cell viability in the presence of IL-3 (n = 4). D and E Effects of ^mPO-6 on the cell viability of the primary AML blasts.
as §1, §2

Nc1ccn([C@@H]2O[C@H](CO)[C@@H](O)[C@@H]2O)c(=O)n1 [cytarabine hydrochloride]
median survival of AML mice treated with Ara-C (AE & CKIT^D816V mice): did not respond | median survival of AML mice treated with Ara-C (AE & CKIT^D816V mice; listed as Ara-C): not prolonged

COC(=O)C[C@](O)(CCCC(C)(C)O)C(=O)O[C@@H]1C(OC)=C[C@]23CCCN2CCc2cc4c(cc2[C@H]13)OCO4 [homoharringtonine]
median survival of AML mice treated with HHT (AE & CKIT^D816V mice): did not respond | median survival of AML mice treated with HHT (AE & CKIT^D816V mice; listed as HHT): did not prolong the AML mice median survival significantly

DDDYDTRAQGTDIGCDFRRISDDD [PO-6]
binding to HL-60 cells [1]: weakly bind | binding to K562 cells [2]: weakly bind | binding to MOLM-13 cells [3]: effectively bind
